Experimental data reported in patent US9459250B2, “Use of T1R3 venus flytrap region polypeptide to screen for taste modulators” (SENOMYX, INC., priority 2003, dated 2016).
Entries after “also recorded” stand apart in the source; their conditions may differ. Like-named read-outs stand apart in the source and are kept apart here. Where a SMILES comes first, the peptide text is derived from it.

Assays:
T1R1/T1R3 [1] = target: T1, T1R1/T1R3 (Homo sapiens (Human), UniProt Q7RTX0+Q7RTX1); test: Umami enhancement assay: MSG dose response with and without compound; assay type: cell-based; conditions: for Ec50 ratio (vs. MSG): Table 1, compound @ 1 uM; for Umami EC50 ratio: Table 5, compound concentration not given
Description: In enhancement assay experiments, a MSG dose response was run and a second MSG dose response was run with a certain amount of candidate compound at every MSG concentrations at the same time. Then, the EC50 ratio is calculated based on the following definitions: EC50 Ratio=EC50(MSG)/EC50(MSG+[Compound])
wherein “[compound]” refers to the concentration of compound used to elicit (or enhance or potentiate) the MSG dose response. Those concentrations can vary from a pM to an mM, more preferred, from a low nM to μM.
(§1) HEK-Gα15 cells were engineered to inducibly express T1R1/T1R3 using the GeneSwitch system (Invitrogen). pGene-derived zeocin-resistant expression vectors for human T1R1 and T1R3 (plasmid SXV603 for T1R1 and SXV611 for T1R3) and a puromycin-resistant pSwitch-derived vector that carries the GeneSwitch protein (plasmid SXV628) were linearized and cotransfected into the HEK-Gα15 cell line. Zeocin-resistant and puromycin-resistant colonies were selected, expanded, induced with variable amounts of mifepristone, and tested by calcium imaging for responses to umami taste stimuli. […] After replacement with 50 μl PBS, stimulation was performed at room temperature by the addition of 50 μl PBS supplemented with different stimuli. The maximal fluorescence from four independent determinations were averaged, corrected for background fluorescence measured prior to compound addition, and normalized to the response to 0.002 mM ionomycin (CALBIOCHEM).

T1R1/T1R3 [2] = target: T1, T1R1/T1R3; test: Umami FLIPR assay, HEK-Gα15 clone I-17 inducibly expressing T1R1/T1R3; assay type: cell-based; conditions: for EC50: Table 1 Umami Amides; for activation of T1R1/T1R3 receptor by L-amino acids: clone I-17, with and without IMP
Description: A dose-dependent response curve was determined for a compound, and the compound concentration corresponding to 50% of the maximal response was derived from the curve, in one example.
Regarding umami tastants and enhancers, scores of their activities can be given as percentage of the maximum MSG intensity (%). In compound dose response, an EC50 can be calculated to reflect the potency of the compound as umami agonist.
as §1

hT1R2/hT1R3 = hT1R2/hT1R3 (Homo sapiens (Human), UniProt Q7RTX0+Q8TE23); test: Sweet FLIPR assay, hT1R2/hT1R3-HEK293-Gα15 S-9 cells; assay type: cell-based; conditions: Table 5 Sweet Enhancer Amides
Description: Compounds were initially selected based on their activity on the hT1R2/hT1R3-HEK293-Gα15 cell line (Li, et al. vide supra). Activity was determined using an automated fluorometric imaging assay on a FLIPR instrument (Fluorometric Intensity Plate Reader, Molecular Devices, Sunnyvale, Calif.) (designated FLIPR assay). […] S-9 cells were grown for 24 hours at 37° C. S-9 cells were then loaded with the calcium dye Fluo-3AM (Molecular Probes, Eugene, Oreg.), 4 μM in a phosphate buffered saline (D-PBS) (Invitrogen, Carlsbad, Calif.), for 1 hour at room temperature. After replacement with 25 μl D-PBS, stimulation was performed in the FLIPR instrument and at room temperature by the addition of 25 μl D-PBS supplemented with different stimuli at concentrations corresponding to twice the desired final level.
For dose-responses analysis, stimuli were presented in duplicates at 10 different concentrations ranging from 60 nM to 30 μM. Activities were normalized to the response obtained with 400 mM D-fructose, a concentration that elicits maximum receptor response. Ec50s were determined using a non-linear regression algorithm (using Senomyx, Inc. software), where the Hill slope, bottom asymptotes and top asymptotes were allow to vary.

HEK293-Gα15 cells = test: FLIPR assay on HEK293-Gα15 cells not expressing the human sweet receptor; assay type: cell-based
Source text: In order to determine the dependency of hT1R2/hT1R3 for the cell response to different stimuli, selected compounds were subjected to a similar analysis on HEK293-Gα15 cells (not expressing the human sweet receptor).

human sweet receptor = human sweet receptor (Homo sapiens (Human), UniProt Q7RTX0+Q8TE23); test: Dose responses of human sweet receptor with lactisole; assay type: cell-based; conditions: read-out: EC50 of sweetener
Source text: Values represent the mean±SE for four independent responses.

T1R1/T1R3 [3] = target: T1, T1R1/T1R3; test: FLIPR dose responses of human T1R1/T1R3 stable cell line with modulators; assay type: cell-based; conditions: for effect of control sweeteners on activities of T1R1/T1R3 umami taste receptor: [Steviocide]=0.5 mM, [Saccharin]=1 mM, glutamate and glutamate/IMP dose responses
Source text: (§2) “Detection thresholds” are defined as the lower limit of detectable tastants. The detection threshold values were averaged over four trials for three subjects. […] The activities in B, C, E and F represent the mean±SE of fold increases in fluorescence intensities for four recorded wells. The dose-responses in B, C, E and F were reproduced at least 6 times independently.
Human cell lines that stably co-express human T1R2/T1R3 or human T1R1/T1R3 were generated by transfecting linearized PEAK10-derived (Edge Biosystems) vectors and pcDNA 3.1/ZEO-derived (Invitrogen) vectors respectively containing hT1R1 or hT1R2 expression construct (plasmid SAV2485 for T1R1, SAV2486 for T1R2) and hT1R3 (plasmid SXV550 for T1R3) into a Gα15 expressing cell line. […] Following SAV2485/SXV550 and SAV2486/SXV550 transfections, puromycin-resistant and zeocin-resistant colonies were selected, expanded, and tested by calcium imaging for responses to sweet or umami taste stimuli. Cells were selected in 0.0005 mg/ml puromycin (CALBIOCHEM) and 0.1 mg/ml zeocin (Invitrogen) at 37° C. in low-glucose DMEM supplemented with GlutaMAX, 10% dialyzed FBS, and 0.003 mg/ml blasticidin. Resistant colonies were expanded, and their responses to sweet taste stimuli evaluated by Fluorescence microscopy. For automated fluorimetric imaging on VIPR-II instrumentation (Aurora Biosciences), T1R2/T1R3 stable cells were first seeded onto 96-well plates (approximately 100,000 cells per well).

T1R1/T1R3 [4] = target: T1, T1R1/T1R3; test: Calcium imaging of HEK-Gα15 cells transiently transfected with human T1R1/T1R3; assay type: cell-based
[5] = test system: endogenous muscarinic acetylcholine receptor; test: Endogenous muscarinic acetylcholine receptor response in HEK cells; assay type: cell-based; conditions: carbachol
Source text: as §2

mT2R5 = mT2R5 (Mus musculus (Mouse), UniProt Q9JKT4); test: Mouse bitter receptor mT2R5 transiently expressed in HEK cells; assay type: cell-based
Source text: As was the case for the T1R2/T1R3 receptor, lactisole inhibition of the T1R1/T1R3 response to umami taste stimuli was reversible following washout and restimulation.

[6] = Human taste detection thresholds in the presence of lactisole; assay type: in vivo; conditions: millimolar (1 and 2 mM) lactisole, human subjects
Source text: as §2
The present inventors then evaluated the effect of lactisole on human umami taste.

Chain of hT1R2/hT1R3 (Q8TE23 other isoform, or with tags, fused parts or gaps): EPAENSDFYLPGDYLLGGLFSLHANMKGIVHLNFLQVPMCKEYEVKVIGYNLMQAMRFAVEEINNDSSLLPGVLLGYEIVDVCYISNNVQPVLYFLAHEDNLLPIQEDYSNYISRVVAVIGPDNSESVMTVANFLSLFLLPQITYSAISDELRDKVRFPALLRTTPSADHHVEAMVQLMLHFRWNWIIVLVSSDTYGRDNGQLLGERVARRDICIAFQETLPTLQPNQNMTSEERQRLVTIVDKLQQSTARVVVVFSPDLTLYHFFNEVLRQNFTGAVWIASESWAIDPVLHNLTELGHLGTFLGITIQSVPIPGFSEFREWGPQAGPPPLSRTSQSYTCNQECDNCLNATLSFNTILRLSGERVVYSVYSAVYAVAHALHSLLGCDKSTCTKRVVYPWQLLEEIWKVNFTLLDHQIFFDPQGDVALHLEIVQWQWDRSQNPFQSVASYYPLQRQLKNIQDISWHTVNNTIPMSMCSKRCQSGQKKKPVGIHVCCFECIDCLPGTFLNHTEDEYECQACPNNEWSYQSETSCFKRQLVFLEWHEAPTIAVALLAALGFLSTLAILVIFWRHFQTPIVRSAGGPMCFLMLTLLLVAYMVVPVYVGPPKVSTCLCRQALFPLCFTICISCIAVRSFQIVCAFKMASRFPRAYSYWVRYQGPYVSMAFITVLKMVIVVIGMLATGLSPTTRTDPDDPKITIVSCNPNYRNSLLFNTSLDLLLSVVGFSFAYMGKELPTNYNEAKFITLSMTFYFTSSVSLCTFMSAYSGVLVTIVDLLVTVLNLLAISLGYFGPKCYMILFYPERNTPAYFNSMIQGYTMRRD
Chain of hT1R2/hT1R3 (Q7RTX0 21-852 C757R): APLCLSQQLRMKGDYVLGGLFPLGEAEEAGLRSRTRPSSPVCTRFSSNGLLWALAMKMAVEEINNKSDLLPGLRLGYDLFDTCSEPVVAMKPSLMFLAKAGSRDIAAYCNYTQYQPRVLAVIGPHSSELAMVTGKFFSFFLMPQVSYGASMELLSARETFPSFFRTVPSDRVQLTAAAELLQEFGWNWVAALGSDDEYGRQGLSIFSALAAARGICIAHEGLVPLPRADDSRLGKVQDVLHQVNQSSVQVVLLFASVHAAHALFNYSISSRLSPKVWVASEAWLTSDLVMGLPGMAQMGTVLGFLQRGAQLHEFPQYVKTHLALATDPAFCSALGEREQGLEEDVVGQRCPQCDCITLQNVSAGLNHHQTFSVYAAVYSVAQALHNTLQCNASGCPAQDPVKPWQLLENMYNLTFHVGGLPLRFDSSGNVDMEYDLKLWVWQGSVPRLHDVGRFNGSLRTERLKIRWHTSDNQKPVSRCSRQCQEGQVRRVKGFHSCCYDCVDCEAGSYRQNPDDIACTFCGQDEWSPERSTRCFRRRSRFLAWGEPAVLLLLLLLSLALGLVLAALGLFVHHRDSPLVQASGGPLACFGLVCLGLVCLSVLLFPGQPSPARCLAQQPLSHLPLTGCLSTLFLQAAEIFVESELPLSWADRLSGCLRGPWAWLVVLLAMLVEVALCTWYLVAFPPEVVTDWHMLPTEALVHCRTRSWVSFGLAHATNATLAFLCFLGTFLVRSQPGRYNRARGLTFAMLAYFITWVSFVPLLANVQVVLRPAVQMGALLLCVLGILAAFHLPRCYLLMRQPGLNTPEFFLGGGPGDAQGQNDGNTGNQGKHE
Chain of human sweet receptor (Q8TE23 other isoform, or with tags, fused parts or gaps): as the sequence (Q8TE23 other isoform, or with tags, fused parts or gaps) above
Chain of human sweet receptor (Q7RTX0 21-852 C757R): as the sequence (Q7RTX0 21-852 C757R) above
T1 sequence (Q7RTX1 21-841): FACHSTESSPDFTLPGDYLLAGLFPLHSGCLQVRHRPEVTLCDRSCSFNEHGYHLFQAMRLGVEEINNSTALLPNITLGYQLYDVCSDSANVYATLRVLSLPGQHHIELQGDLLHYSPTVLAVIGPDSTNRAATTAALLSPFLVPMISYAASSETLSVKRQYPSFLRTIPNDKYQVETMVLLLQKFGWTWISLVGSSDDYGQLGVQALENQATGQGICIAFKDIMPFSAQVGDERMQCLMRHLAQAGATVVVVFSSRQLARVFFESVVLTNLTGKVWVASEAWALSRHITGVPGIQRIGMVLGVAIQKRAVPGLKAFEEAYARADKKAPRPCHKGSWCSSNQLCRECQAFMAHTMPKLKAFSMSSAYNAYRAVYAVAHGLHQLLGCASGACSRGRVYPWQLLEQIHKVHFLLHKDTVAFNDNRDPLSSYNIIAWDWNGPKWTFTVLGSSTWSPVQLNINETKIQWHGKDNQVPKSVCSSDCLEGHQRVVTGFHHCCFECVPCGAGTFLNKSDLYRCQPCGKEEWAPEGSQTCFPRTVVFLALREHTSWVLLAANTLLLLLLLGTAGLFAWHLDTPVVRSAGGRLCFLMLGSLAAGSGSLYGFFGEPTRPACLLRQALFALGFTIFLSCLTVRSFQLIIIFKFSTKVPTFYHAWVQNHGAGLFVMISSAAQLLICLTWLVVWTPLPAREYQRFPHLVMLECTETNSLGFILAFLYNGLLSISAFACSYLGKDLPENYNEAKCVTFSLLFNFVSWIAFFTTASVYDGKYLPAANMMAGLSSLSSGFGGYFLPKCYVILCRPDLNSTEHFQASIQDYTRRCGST
T1 sequence (Q7RTX0 21-852 C757R): as the sequence (Q7RTX0 21-852 C757R) above
Chain of mT2R5 (Q9JKT4 whole entry): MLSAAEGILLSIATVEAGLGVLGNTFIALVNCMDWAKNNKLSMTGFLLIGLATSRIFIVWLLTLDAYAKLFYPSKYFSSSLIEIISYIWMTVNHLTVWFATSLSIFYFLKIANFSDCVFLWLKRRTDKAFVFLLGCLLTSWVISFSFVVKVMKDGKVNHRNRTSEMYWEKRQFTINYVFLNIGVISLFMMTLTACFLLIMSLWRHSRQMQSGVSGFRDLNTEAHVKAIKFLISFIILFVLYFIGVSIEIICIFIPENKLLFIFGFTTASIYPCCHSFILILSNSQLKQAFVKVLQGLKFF

CCCC(CCC)NC(=O)c1cc2cc(C)ccc2o1 [Compound A10]
Ec50 ratio (vs. MSG) (T1R1/T1R3 [1]): 4.51 | EC50 (T1R1/T1R3 [2]): 910 nM

COC(=O)[C@@H](CC(C)C)NC(=O)c1ccc2nc(C)oc2c1 [Compound A25]
EC50 (T1R1/T1R3 [2]): 1480 nM

COC(=O)C(NC(=O)c1ccc2oc(C)nc2c1)C(C)C(C)C (stereo not shown) [Compound A28]
EC50 (T1R1/T1R3 [2]): 1690 nM

CC[C@@H](C)[C@@](C)(NC(=O)c1ccc2c(c1)OCO2)C(=O)OC [Compound A42]
EC50 (T1R1/T1R3 [2]): 350 nM

CCCC[C@@H](NC(=O)c1ccc2c(c1)OCO2)C(=O)OC [Compound A44]
EC50 (T1R1/T1R3 [2]): 610 nM

COC(=O)[C@@H](CC(C)C)NC(=O)c1ccc2c(c1)OCO2 [Compound A45]
EC50 (T1R1/T1R3 [2]): 880 nM

CCCC(CC)NC(=O)c1ccc2c(c1)CCO2 (stereo not shown) [Compound A53]
EC50 (T1R1/T1R3 [2]): 1830 nM

CCC[C@@H](NC(=O)c1ccc(OC)c(Cl)c1)C(=O)OC [Compound A67]
Ec50 ratio (vs. MSG) (T1R1/T1R3 [1]): 10.75 | EC50 (T1R1/T1R3 [2]): 290 nM

CCCC(CCC)NC(=O)c1cccc(C(C)(F)F)c1 [Compound A70]
EC50 (T1R1/T1R3 [2]): 330 nM

CCCC(CCC)NC(=O)c1cccc(OC)c1 [Compound A84]
EC50 (T1R1/T1R3 [2]): 530 nM

COC(=O)[C@@H](CCSC)NC(=O)c1ccc(OC)c(C)c1 [Compound A86]
EC50 (T1R1/T1R3 [2]): 530 nM

COC(=O)[C@H]1CCCC[C@H]1NC(=O)c1ccc(OC)c(Cl)c1 [Compound A103]
EC50 (T1R1/T1R3 [2]): 1360 nM

COc1ccc(CNC(O)c2ccccc2-c2ccccc2)c(OC)c1 (stereo not shown) [Compound A104]
EC50 (T1R1/T1R3 [2]): 1370 nM

COc1cccc2c1CCCC2NC(=O)c1cc(O)ccc1O (stereo not shown) [Compound E18, 2,5-dihydroxy-N-(5-methoxy-1,2,3,4-tetrahydronaphthalen-1-yl)benzamide]
EC50 (hT1R2/hT1R3): 3.38 µM

Cc1oncc1C(=O)N[C@@H]1CCCc2ccccc21 [Compound E26, (R)-5-methyl-N-(1,2,3,4-tetrahydronaphthalen-1-yl)isoxazole-4-carboxamide]
EC50 (hT1R2/hT1R3): 8.09 µM

Cc1cc(C)c(C(=O)NC2CCCCCC2)c(C)c1 [Compound E49, N-cycloheptyl-2,4,6-trimethylbenzamide]
EC50 (hT1R2/hT1R3): 1.39 µM

CC1CCCCC1NC(=O)c1ccnc(Cl)c1 (stereo not shown) [Compound E56, 2-chloro-N-(2-methylcyclohexyl)isonicotinamide]
Umami EC50 ratio (T1R1/T1R3 [1]): 2.08

CC1CCCCC1NC(=O)c1cccc(C(F)(F)F)c1 (stereo not shown) [Compound E59, N-(2-methylcyclohexyl)-3-(trifluoromethyl)benzamide]
Umami EC50 ratio (T1R1/T1R3 [1]): 2.07

CC1CCCCC1NC(=O)c1ccc(F)c(F)c1 (stereo not shown) [Compound E81, 3,4-difluoro-N-(2-methylcyclohexyl)benzamide]
Umami EC50 ratio (T1R1/T1R3 [1]): 6.98

COc1c(Cl)ccc(Cl)c1C(=O)Nc1ccccc1F [Compound E84, 3,6-dichloro-N-(2-fluorophenyl)-methoxybenzamide]
Umami EC50 ratio (T1R1/T1R3 [1]): 16.51

O=C(CO)[C@@H](O)[C@H](O)[C@H](O)CO [D-Fructose, D-fructose]
functional response in FLIPR assay (HEK293-Gα15 cells): do not show any functional response

N[C@H](Cc1c[nH]c2ccccc12)C(=O)O [D-Trp, D-tryptophan]
EC50 (human sweet receptor; 0 μM lactisole): 0.37 ± 0.02 mM | EC50 (human sweet receptor; 10 μM lactisole): 0.6 mM | EC50 (human sweet receptor; 20 μM lactisole): 0.94 ± 0.08 mM

N[C@H](Cc1c[nH]c2ccccc12)C(=O)O [D-tryptophan]
effect of other sweeteners on human T1R1/T1R3 activities (T1R1/T1R3 [3]): no effect

N[C@@H](CC(=O)O)C(=O)O [L-aspartate, reference compound]
activation of T1R1/T1R3 receptor by L-amino acids (T1R1/T1R3 [2]): significantly activated

N[C@@H](CCC(=O)O)C(=O)O [L-glutamate, reference compound]
activation of T1R1/T1R3 receptor by L-amino acids (T1R1/T1R3 [2]): significantly activated | percentage of cells that responded (T1R1/T1R3 [2]; induced cells (inducible T1R1/T1R3 expression)): approximately 80% | percentage of cells that responded (T1R1/T1R3 [4]; transiently transfected cells): approximately 10%

C=C1C[C@@]23CC[C@H]4[C@@](C)(CCC[C@@]4(C)C(=O)O[C@@H]4O[C@H](CO)[C@@H](O)[C@H](O)[C@H]4O)[C@@H]2CC[C@]1(O[C@@H]1O[C@H](CO)[C@@H](O)[C@H](O)[C@H]1O[C@@H]1O[C@H](CO)[C@@H](O)[C@H](O)[C@H]1O)C3 [Steviocide, stevioside]
effect of control sweeteners on activities of T1R1/T1R3 umami taste receptor (T1R1/T1R3 [3]): do not affect

COC(=O)[C@H](Cc1ccccc1)NC(=O)[C@@H](N)CC(=O)O [aspartame] (H-Asp-Phe-OMe)
effect of other sweeteners on human T1R1/T1R3 activities (T1R1/T1R3 [3]): no effect

O=S(=O)(O)NC1CCCCC1 [cyclamate]
effect of compound alone on T1R1/T1R3 (T1R1/T1R3 [3]; alone): no effect | effect on T1R1/T1R3 activity in the presence of L-glutamate (T1R1/T1R3 [3]; threshold level of L-glutamate (4 mM)): enhanced the activity of the receptor

N[C@@H](CCC(=O)O)C(=O)O [glutamate]
maximal percentage of responding cells (T1R1/T1R3 [4]; glutamate alone): approximately 5% | maximal percentage of responding cells (T1R1/T1R3 [4]; glutamate plus 0.2 mM IMP): approximately 10%

COc1ccc(OC(C)C(=O)O)cc1 (stereo not shown) [lactisole, Lactisole]
effect on endogenous muscarinic acetylcholine receptor response [5]: not inhibited; also recorded: no effect | effect on mouse bitter receptor mT2R5 (mT2R5): no effect | detection thresholds for sweet, umami and salt taste stimuli [6]: dramatically increased detection thresholds for sweet and umami but not salt taste stimuli

O=C1NS(=O)(=O)c2ccccc21 [saccharin]
effect of other sweeteners on human T1R1/T1R3 activities (T1R1/T1R3 [3]): no effect | effect of control sweeteners on activities of T1R1/T1R3 umami taste receptor (T1R1/T1R3 [3]): do not affect

OC[C@H]1O[C@@](CO)(O[C@H]2O[C@H](CO)[C@@H](O)[C@H](O)[C@H]2O)[C@@H](O)[C@@H]1O [sucrose]
effect of other sweeteners on human T1R1/T1R3 activities (T1R1/T1R3 [3]): no effect | EC50 (human sweet receptor; 0 μM lactisole): 19.4 ± 0.9 mM | EC50 (human sweet receptor; 10 μM lactisole): 24.7 ± 1 mM | EC50 (human sweet receptor; 20 μM lactisole): 31.3 ± 0.3 mM
